Data on one substance can be found in patent US20260167706A1, “ANTI-ADRENOMEDULLIN (ADM) ANTIBODY OR ANTI-ADM ANTIBODY FRAGMENT OR ANTI-ADM NON-IG SCAFFOLD FOR USE IN THERAPY OR PREVENTION OF SHOCK” (ADRENOMED AG, priority 2022, published 2026).

Data set [1] relates to patients with septic shock and elevated adrenomedullin. Description: AdrenOSS-2 phase II clinical trial, mortality versus placebo. Type of data set: in vivo, human. The note with it: for all-cause mortality compared to the placebo arm: 28 days. An excerpt: AdrenOSS-2 is a double-blind, placebo-controlled, randomized, multicenter, proof of concept and dose-finding phase II clinical trial to investigate the safety, tolerability and efficacy of the N-terminal ADM antibody named Adrecizumab in patients with septic shock and elevated adrenomedullin (Geven et al. BMJ Open 2019; 9:e024475). In total, 301 patients with septic shock and bio-ADM concentration >70 pg/mL were randomized (2:1:1) to treatment with a single intravenous infusion over approximately 1 hour with either placebo (n=152), adrecizumab 2 ng/kg (n=72) or adrecizumab 4 ng/kg (n=77). All-cause mortality within 28 (90) days after inclusion was 25.8% (34.8%). Mean age was 68.4 years and 61% were male. For the per protocol analysis, n=294 patients remained eligible, and 14-day all-cause mortality rate was 18.5%.
To validate the findings from example 10 and for proof of concept, the different lower thresholds for DPP3 at baseline (day 1) were assessed for efficacy of the anti-ADM antibody (Adrecizumab) therapy in the septic shock population with high bio-ADM from the AdrenOSS-2 study cohort and patients with a DPP3 plasma value above the different lower thresholds were excluded from the analyses. Efficacy of the anti-bio-ADM antibody therapy was specifically assessed to what concerns the mortality endpoint in the placebo and treated arms.
The DPP3 plasma levels in septic shock with high bio-ADM (above […]) patients (n=298) at baseline and in the following 144 h were statistically analysed with the aim of determining a DPP3 threshold at baseline to assess anti-ADM antibody therapy efficacy. Patients above the respective DPP3 plasma thresholds were excluded from the analyses. Different DPP3 plasma concentration thresholds have been applied for 28-day all-cause mortality evaluation using Kaplan-Meier plots comparing anti-ADM antibody therapy vs. placebo. The log-rank test was chosen for showing differences in mortality rates among treatment groups. Hazard ratios (HR) were calculated for each DPP3 plasma concentration threshold to estimate the reduction in mortality risk imposed by anti-ADM antibody therapy relative to placebo.
The different thresholds for DPP3 levels at baseline (day 1) were further used for subgroup analyses for 28-day all-cause mortality evaluation using Kaplan-Meier plots in the treated and placebo arms comparing anti-ADM antibody therapy (Adrecizumab) vs. placebo. The DPP3 plasma concentration thresholds at baseline used were 50 ng/ml and 30 ng/ml.

For data set [2] the test system is unchanged. The data set is described as above. Type of data set: in vivo, human.
The test system of data set [3] is mice with CLP-induced sepsis. The note with it: pre-treatment, cited from earlier work.
A further data set relates to endotoxemic rats. The note with it: pre-treatment; cited from earlier work.
The test system of data set [4] is subjects of phase I study. The note with it: cited from earlier work.

Where two headings read alike, the source gives them in different places.

For “Adrecizumab: humanized N-terminal anti-ADM antibody; heavy chain SEQ ID NO: 32, light chain SEQ ID NO: 33”, the “all-cause mortality compared to the placebo arm” value in data set [1] (DPP3 below 30 ng/ml (n=195)) is given as “significantly reduced”; in data set [1] (DPP3 below 50 ng/ml) it was “lower than the placebo arm”; in data set [1] (DPP3 below 50 ng/ml at baseline and continuously low during the next 144h) it was “significantly lower”. Besides, the “HR, 28-day all-cause mortality relative to placebo” value in data set [1] (DPP3 threshold at baseline 22 ng/ml) came out at 0.258; in data set [1] (DPP3 threshold at baseline 30 ng/ml) it was 0.309; in data set [1] (DPP3 threshold at baseline 40 ng/ml), 0.568; in data set [1] (DPP3 threshold at baseline 50 ng/ml), 0.606. Also, the “HR for 14-day mortality” value in data set [2] (elevated DPP3 above 50 ng/mL) came out at 1.69; in data set [2] (pre-dose DPP3 <40), 0.385; in data set [2] (pre-dose DPP3 <50 (ng/mL)), 0.426; in data set [2] (pre-dose DPP3 <60) it was 0.449; in data set [2] (pre-dose DPP3 <70), 0.546; in data set [2] (pre-dose DPP3 <90), 0.606. Also, the renal vascular leakage result (in data set [3] (mice with CLP-induced sepsis); with endotoxemic rats) was “attenuated” throughout. Besides, the 7-day survival in data set [3] (repeated dose administration (control 0%)) is 40%; in data set [3] (single dose administration (control 10%)) it was 50%. For the same substance, the serious adverse events result in data set [4] was “no serious adverse events were observed”.
